Results reported in patent US10294202B2, “Pyrrolidinones as herbicides” (FMC Corporation, priority 2013, dated 2019).

How the values were obtained:
[1] = test system: lambsquarters; test: Test C pre-/postemergence herbicide test; format: in vivo, Chenopodium album
In short: (§1)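 Pre-emergence: seeds sown in loam/sand blend and treated with compound in surfactant-containing solvent. Post-emergence: plants at 2–18 cm (1- to 4-leaf stage) in peat-based medium sprayed with the same formulation. Visual rating versus controls after 13–15 days in greenhouse, scale 0 (no effect) to 100 (complete control).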

[2] = test system: corn; test: Test C pre-/postemergence herbicide test; format: in vivo, Zea mays
In short: as §1

[3] = test system: ducksalad; test: Test B flooded paddy test; format: in vivo, Heteranthera limosa; conditions: Flood, scale of 0 to 100 where 0 is no effect and 100 is complete control
In short: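 Plants were grown to the 2-leaf stage, then pots were flooded to 3 cm above the soil and compound was applied directly into the paddy water, with that depth held throughout. After 13 to 15 days in a greenhouse, injury was rated visually against untreated controls on a 0 to 100 scale (100 = complete control).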

[4] = test system: ryegrass, Italian; test: Test C pre-/postemergence herbicide test; format: in vivo, Lolium multiflorum
In short: as §1

[5] = test system: pigweed; test: Test C pre-/postemergence herbicide test; format: in vivo, Amaranthus retroflexus
In short: as §1

[6] = test system: soybean; test: Test C pre-/postemergence herbicide test; format: in vivo, Glycine max
In short: as §1

[7] = test system: barnyardgrass; test: Test A pre-/postemergence herbicide test; format: in vivo, Echinochloa crus-galli
In short: (§2)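 Seeds in loam–sand blend received preemergence directed soil spray; separately, plants 2–10 cm at one- to two-leaf stage received postemergence spray, both with test chemicals in non-phytotoxic solvent with surfactant. After ~10 days in greenhouse, injury rated visually against untreated controls, 0 (no effect) to 100 (complete control).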

[8] = test system: giant foxtail; test: Test A pre-/postemergence herbicide test; format: in vivo, Setaria faberii
In short: as §2

[9] = test system: johnsongrass; test: Test C pre-/postemergence herbicide test; format: in vivo, Sorghum halepense
In short: as §1

[10] = test system: crabgrass, large; test: Test C pre-/postemergence herbicide test; format: in vivo, Digitaria sanguinalis
In short: as §1

[11] = test system: nutsedge, yellow; test: Test C pre-/postemergence herbicide test; format: in vivo, Cyperus esculentus
In short: as §1

[12] = Preemergence, 62 g ai/ha, scale 0 to 100 (0 no effect, 100 complete control)
[13] = Preemergence, 125 g ai/ha, scale 0 to 100
[14] = Preemergence, 31 g ai/ha, scale 0 to 100
[15] = Postemergence, 125 g ai/ha, visual rating on 0 to 100 scale (0 no effect, 100 complete control), approx. 10 days
[16] = Postemergence, 500 g ai/ha, 0 to 100 scale (0 no effect, 100 complete control)
[17] = Preemergence, 125 g ai/ha, 0 to 100 scale where 0 is no effect and 100 is complete control
[18] = Preemergence, 500 g ai/ha, visual rating on 0 to 100 scale (0 no effect, 100 complete control)
[19] = Postemergence, 31 g ai/ha, scale 0 (no effect) to 100 (complete control)
[20] = Postemergence, 125 g ai/ha, scale 0 to 100 (0 no effect, 100 complete control)
[21] = Preemergence, 62 g ai/ha, scale 0 to 100
[22] = Preemergence, 125 g ai/ha, scale 0 to 100 (0 no effect, 100 complete control)
[23] = Preemergence, 16 g ai/ha, scale 0 to 100
[24] = Postemergence, 16 g ai/ha, scale 0 to 100 (0 no effect, 100 complete control)
[25] = Postemergence, 62 g ai/ha, scale 0 to 100 (0 no effect, 100 complete control)
[26] = Preemergence, 31 g ai/ha, scale 0 to 100 (0 no effect, 100 complete control)
[27] = Postemergence, 125 g ai/ha, 0 to 100 scale, 0 no effect, 100 complete control
[28] = Preemergence, 125 g ai/ha, visual rating on 0 to 100 scale (0 no effect, 100 complete control)

For O=C1NCC(c2ccc(OC(F)F)cc2)C1C(=O)Nc1cccc(F)c1F (racemic) [Compound 350], the “Lambsquarters plant response rating” value [1, 12] was 90, the “Plant response rating, Lambsquarters” value [1, 13] was 90 and the “Plant response rating (scale of 0 to 100), Lambsquarters” value ([1]; Preemergence, 250 g ai/ha) was 90. For the same compound, the “Corn plant response rating” value [2, 12] was 0, the “Plant response rating, Corn” value [2, 13] was 5 and the “Plant response rating (scale of 0 to 100), Corn” value ([2]; Preemergence, 250 g ai/ha) was 40. For the same compound, the “Plant response rating, Corn” value [2, 14] was 0, the “Plant response rating, Ducksalad” value ([3]; 500 g ai/ha) was 100 and the “Ryegrass, Italian plant response rating” value [4, 12] was 0. For the same compound, the “Plant response rating, Ryegrass, Italian” value [4, 13] was 5, the “Plant response rating, Ryegrass, Italian” value [4, 14] was 0 and the “Pigweed plant response rating” value [5, 12] was 10. For the same compound, the “Plant response rating, Pigweed” value [5, 13] was 80, the “Plant response rating, Pigweed” value [5, 14] was 0 and the “Soybean plant response rating” value [6, 12] was 0. The “Plant response rating, Soybean” value [6, 13] was 0, the “Plant response rating, Soybean” value [6, 14] was 0 and the “Plant response rating, Barnyardgrass” value [7, 15] was 70. For the same compound, the “Plant response rating, Barnyardgrass” value [7, 16] was 90, the “Plant response rating, Barnyardgrass” value [7, 17] was 90 and the “Barnyardgrass plant response rating” value [7, 18] was 90. For the same compound, the “Plant response rating, Foxtail, Giant” value [8, 15] was 80, the “Plant response rating, Foxtail, Giant” value [8, 16] was 90 and the “Plant response rating, Foxtail, Giant” value [8, 17] was 90. For the same compound, the “Foxtail, Giant plant response rating” value [8, 18] was 90, the “Johnsongrass plant response rating” value [9, 12] was 0 and the “Plant response rating, Johnsongrass” value [9, 13] was 0. For the same compound, the “Plant response rating (scale of 0 to 100), Johnsongrass” value ([9]; Preemergence, 250 g ai/ha) was 30, the “Plant response rating, Johnsongrass” value [9, 14] was 0 and the “Crabgrass, Large plant response rating” value [10, 12] was 90. For the same compound, the “Plant response rating, Crabgrass, Large” value [10, 13] was 90, the “Plant response rating (scale of 0 to 100), Crabgrass, Large” value ([10]; Preemergence, 250 g ai/ha) was 90 and the “Plant response rating, Crabgrass, Large” value [10, 14] was 90. For the same compound, the “Nutsedge, Yellow plant response rating” value [11, 12] was 0, the “Plant response rating, Nutsedge, Yellow” value [11, 13] was 0 and the “Plant response rating (scale of 0 to 100), Nutsedge, Yellow” value ([11]; Preemergence, 250 g ai/ha) was 0. For the same compound, the “Plant response rating, Nutsedge, Yellow” value [11, 14] was 0.
With O=C1NCC(c2cc(F)c(F)c(F)c2)C1C(=O)Nc1cccc(F)c1F (stereo not drawn) [Compound 48] the “Plant response rating, Lambsquarters” value [1, 19] was 10, the “Plant response rating, Lambsquarters” value [1, 20] was 10 and the “Plant response rating, Lambsquarters” value [1, 21] was 65. The “Plant response rating, Lambsquarters” value [1, 22] was 65, the “Plant response rating, Lambsquarters” value [1, 23] was 0 and the “Plant response rating, Corn” value [2, 24] was 0. The “Plant response rating, Corn” value [2, 19] was 5, the “Plant response rating, Corn” value [2, 25] was 5 and the “Plant response rating, Corn” value [2, 20] was 5. For the same compound, the “Plant response rating, Corn” value [2, 21] was 20, the “Plant response rating, Corn” value [2, 22] was 20 and the “Plant response rating, Corn” value [2, 23] was 0. For the same compound, the “Corn plant response rating” value [2, 26] was 0, the “Plant response rating, Ducksalad” value ([3]; 250 g ai/ha) was 100 and the “Plant response rating, Ryegrass, Italian” value [4, 24] was 0. For the same compound, the “Plant response rating, Ryegrass, Italian” value [4, 19] was 0, the “Plant response rating, Ryegrass, Italian” value [4, 25] was 0 and the “Plant response rating, Ryegrass, Italian” value [4, 20] was 0. The “Plant response rating, Ryegrass, Italian” value [4, 21] was 0, the “Plant response rating, Ryegrass, Italian” value [4, 22] was 0 and the “Plant response rating, Ryegrass, Italian” value [4, 23] was 0. The “Plant response rating, Pigweed” value [5, 24] was 10, the “Plant response rating, Pigweed” value [5, 19] was 25 and the “Plant response rating, Pigweed” value [5, 25] was 30. The “Plant response rating, Pigweed” value [5, 20] was 40, the “Plant response rating, Pigweed” value [5, 21] was 0 and the “Plant response rating, Pigweed” value [5, 22] was 0. The “Plant response rating, Pigweed” value [5, 23] was 0, the “Plant response rating, Soybean” value [6, 24] was 5 and the “Plant response rating, Soybean” value [6, 19] was 10. The “Plant response rating, Soybean” value [6, 25] was 10, the “Plant response rating, Soybean” value [6, 20] was 10 and the “Plant response rating, Soybean” value [6, 21] was 10. For the same compound, the “Plant response rating, Soybean” value [6, 22] was 15, the “Plant response rating, Soybean” value [6, 23] was 10 and the “Plant response rating, Barnyardgrass” value [7, 27] was 80. For the same compound, the “Plant response rating, Barnyardgrass” value [7, 16] was 90, the “Barnyardgrass plant response rating” value [7, 28] was 80 and the “Plant response rating, Barnyardgrass” value ([7]; preemergence, 500 g ai/ha, 0 to 100 scale (0 no effect, 100 complete control)) was 90. For the same compound, the “Plant response rating, Foxtail, Giant” value [8, 27] was 80, the “Plant response rating, Foxtail, Giant” value [8, 16] was 80 and the “Foxtail, Giant plant response rating” value [8, 28] was 80. The “Plant response rating, Foxtail, Giant” value ([8]; preemergence, 500 g ai/ha, 0 to 100 scale) was 90, the “Plant response rating, Johnsongrass” value [9, 24] was 0 and the “Plant response rating, Johnsongrass” value [9, 19] was 0. The “Plant response rating, Johnsongrass” value [9, 25] was 0, the “Plant response rating, Johnsongrass” value [9, 20] was 0 and the “Plant response rating, Johnsongrass” value [9, 21] was 10. For the same compound, the “Plant response rating, Johnsongrass” value [9, 22] was 20, the “Plant response rating, Johnsongrass” value [9, 23] was 0 and the “Plant response rating, Crabgrass, Large” value [10, 24] was 20. For the same compound, the “Plant response rating, Crabgrass, Large” value [10, 19] was 40, the “Plant response rating, Crabgrass, Large” value [10, 25] was 65 and the “Plant response rating, Crabgrass, Large” value [10, 20] was 75. For the same compound, the “Plant response rating, Crabgrass, Large” value [10, 21] was 90, the “Plant response rating, Crabgrass, Large” value [10, 22] was 95 and the “Plant response rating, Crabgrass, Large” value [10, 23] was 75. For the same compound, the “Crabgrass, Large plant response rating” value [10, 26] was 85, the “Plant response rating, Nutsedge, Yellow” value [11, 24] was 0 and the “Plant response rating, Nutsedge, Yellow” value [11, 19] was 0. The “Plant response rating, Nutsedge, Yellow” value [11, 25] was 0, the “Plant response rating, Nutsedge, Yellow” value [11, 20] was 0 and the “Plant response rating, Nutsedge, Yellow” value [11, 21] was 0. For the same compound, the “Plant response rating, Nutsedge, Yellow” value [11, 22] was 20 and the “Plant response rating, Nutsedge, Yellow” value [11, 23] was 0.
